Experimental data from patent US7217698B2, “Use of mannosamine derivatives for the stimulation of neurite growth” (Dompatent von Kreisler Selting Werner, priority 2001, dated 2007).

Test system: PC12 cells
Test: Neurite growth of NGF-stimulated PC12 cells with added ManNProp
Type: cell-based
Conditions: two days, control NGF only
Experimental: It is known that stimulation with nerve growth factor (NGF) causes neuronal differentiation in PC12 cells. At an NGF concentration of 250 ng/ml and after three days of incubation, the PC12 cells already form a network of neurites. In order to examine whether the addition of ManNProp has an influence on the neurite formation by PC12 cells, the suitable neurite lengths for different incubation times were first titrated with different NGF concentrations. At an NGF concentration of 100 ng and an incubation time of two days, the cells formed neurites whose length were double the diameter of their cell. Under such conditions, the further course of the experiments was set up. The cells were plated with a constant number of cells on culture chambers which consisted of four chambers and were coated with collagen I (col.), poly-D-lysine (PDL) or laminin, and incubated under three different sets of conditions. Each variation was represented in duplicate. In the first chamber, the PC12 cells were incubated with 5 mM ManNProp, and in the second chamber, they were incubated with 100 ng of NGF. […] The first and second chambers served as a reference control for the cells under the influence of NGF and ManNProp. For each experiment, three culture chambers were sown in duplicate. After two days of incubation, the cells were fixed with paraformaldehyde, stained with crystal violet and washed with water. For evaluation, various segments were photographed and measured according to a random choice principle. For the evaluation, only the cells stimulated with NGF which served as a control and the cells stimulated with NGF plus ManNProp were considered. Each bar represents three experiments performed on three different days. The relative neurite length was established by CAPA (computer-assisted process analysis), and the data were integrated by means of Delta Graph. All experiments shown here were independently performed on different days. The values from Table 1 were additionally represented graphically in FIG. 3.

CCC(=O)N[C@@H]1C(O)O[C@H](CO)[C@@H](O)[C@@H]1O (stereo partly drawn) [ManNProp, N-propanoylmannosamine]
Enhancement of neurite growth in percent relative to the control (Col. (collagen I) coating, 0.5 mM ManNProp + 100 ng NGF): 3%
Enhancement of neurite growth in percent relative to the control (Col. (collagen I) coating, 5 mM ManNProp + 100 ng NGF): 11%
Enhancement of neurite growth in percent relative to the control (Col. (collagen I) coating, 25 mM ManNProp + 100 ng NGF): 20%
Enhancement of neurite growth in percent relative to the control (Laminin coating, 0.5 mM ManNProp + 100 ng NGF): 28%
Enhancement of neurite growth in percent relative to the control (Laminin coating, 5 mM ManNProp + 100 ng NGF): 70%
Enhancement of neurite growth in percent relative to the control (Laminin coating, 25 mM ManNProp + 100 ng NGF): 59%
Enhancement of neurite growth in percent relative to the control (PDL (poly-D-lysine) coating, 0.5 mM ManNProp + 100 ng NGF): 4%
Enhancement of neurite growth in percent relative to the control (PDL (poly-D-lysine) coating, 5 mM ManNProp + 100 ng NGF): 5%
Enhancement of neurite growth in percent relative to the control (PDL (poly-D-lysine) coating, 25 mM ManNProp + 100 ng NGF): 17%
